Results as given in patent US9023812B2, “Neuroprotective ganglioside compositions for use in treating huntington's disease” (The Governors of the University of Alberta, priority 2009, dated 2015).

Columns and labels:
STHdh^111Q/111Q cells [1] = assay: Induction and measurement of apoptosis (annexin V binding / active caspase-3, FACS) in HD knock-in striatal cells; conditions: for protection from apoptosis (annexin V binding, caspase 3 activation): 0.1-1-5-10-20 μM Liga20, knock-in striatal cells WT or HD, FIG. 13
Protocol: Conditionally-immortalized rat striatal ST14A cells and ST14A cells expressing an N-terminal fragment of mHtt containing 120 glutamines (N548-120Q) were kindly provided by Dr. E. Cattaneo (University of Milan, Italy) and maintained in culture at the permissive temperature (33° C.) as previously reported (Rigamonti et al., 2001). Conditionally-immortalized mouse striatal knock-in cells expressing endogenous levels of wild-type (STHdh^Q7/Q7) or mHtt (STHdh^Q111/Q111) were a gift from Dr. M. E. MacDonald (Massachusetts General Hospital, Boston, Mass., USA) and were maintained as previously described (Trettel et al., 2000).
In order to induce apoptosis immortalized cells were incubated at 39° C. […] For apoptosis detection, at the end of each treatment cells were collected, washed with PBS and incubated with PE-conjugated annexin V (BD Biosciences) according to the manufacturer's instructions. For the simultaneous detection of active caspase-3 and annexin V binding, cells were first labeled with annexin V as indicated above, then fixed in 4% paraformaldehyde and permeabilized with 0.3% saponin in PBS containing 4% donkey serum.
GM1 (Alexis) at the indicated concentrations was added to the cells in serum-free medium at the time when cells were shifted at 39° C. to induce apoptosis.
K252a (200 nM, Calbiochem) was used to inhibit TrK receptor-mediated signaling. […] Both inhibitors were administered to the cells 2 hours before induction of apoptosis and administration of GM1.

STHdh^7Q/7Q cells [2] = assay: Induction and measurement of apoptosis (annexin V binding / active caspase-3, FACS) in wild-type knock-in striatal cells; type: cell-based, mouse
Protocol: To inhibit ganglioside synthesis, wild-type cells were incubated for 3 days in medium containing 10 μM 1-phenyl-2-palmitoylamino-3-morpholino-1-propanol (PPMP, Matreya, Pleasant Gap, Pa., USA). Cells were then washed two times with PBS and incubated for 12 hours at 39° C. in serum-free medium to induce apoptosis.

STHdh^7Q/7Q cells [3] = type: cell-based, mouse
[4] = system: Htt phosphorylation at Ser13 and S16; assay: PPMP treatment and immunoblotting of total and phospho-Htt in striatal knock-in cells; type: cell-based, mouse; conditions: 10 μM PPMP for 3 days
Protocol: Knock-in striatal cells expressing wild-type Htt (7/7) or mHtt (111/111) (Trettel, F., et al. (2000)) were incubated for 3 days in medium containing 10 μM 1-phenyl-2-palmitoylamino-3-morpholino-1-propanol (PPMP, Matreya, Pleasant Gap, Pa., USA) to inhibit ganglioside synthesis. Cells were then washed two times with PBS and lysed in 50 mM Tris, 1% NP-40, 1 mM EDTA, 10 mM NaF, 1 mM Na2VO4 and 1:100 protease inhibitor cocktail (SIGMA-Aldrich). […] HRP-conjugated secondary antibodies were used at 1:3,000 dilution (Bio-Rad Laboratories, Hercules, Calif., USA). Protein bands were detected by ECL Plus and quantitated with Quantity One® software (Bio-Rad Laboratories, Hercules, Calif., USA).
In these experiments, synthesis of gangliosides was inhibited in striatal knock-in cells with PPMP, as above. Levels of total and phospho-Htt were detected in total cell lysates using immunoblotting (Panel A) with mAb2166 and N17pS13pS16 antibody, respectively. Panel B is a graph is the densitometric analysis of the immunoblot show in Panel A.

[5] = Wu et al., 2004; cited from earlier work
STHdh^111Q/111Q cells [6] = type: cell-based, mouse; conditions: 50 μM GM1, HD cells, FIG. 5C
AKT = AKT activation (phospho-AKT/AKT ratio) by immunoblotting in striatal knock-in cells; type: cell-based, mouse; conditions: for phospho-AKT/AKT ratio: 7 minutes and 6 hours after addition of GM1, serum-free medium at 39° C.
Protocol: FIG. 7—GM1 protective effect on striatal cells is partially mediated by AKT activation. A) Akt phosphorylation was measured 7 minutes and 6 hours after addition of GM1 in serum-free medium and incubation at 39° C. to induce cell death. Analysis of phospho-AKT/AKT ratio, indicative of AKT activation, was performed by densitometric analysis of immunoblots in three independent experiments. In each experiment, the pospho-AKT/AKT ratio measured in wild-type untreated cells (control) was arbitrarily set to 100% to which HD and GM1-treated samples were compared. Mean values±SD and representative immunoblots are shown. […] The percentage of apoptotic cells was measured by annexin V binding. Data are the mean±SD of 3 experiments, each performed in triplicate. 7/7, STHdh^7Q/7Q; 111/111, STHdh^111Q/111Q; *, p<0.05; **, p<0.001; ***, p<0.0001
Cells were scraped in 10 mM Tris-HCl, pH 7.4, containing 1% NP40, 10 mM NaF, 1 mM Na2VO4 and 1:100 protease inhibitor cocktail (SIGMA-Aldrich, St. Louis, Mo., USA) and lysed by sonication followed by incubation on ice for 30 minutes. Cell debris were removed by centrifugation at 15,000×g for 15 minutes. Protein concentration in the supernatant was measured by BCA assay (Pierce). Thirty μg of proteins were resolved on 10% SDS-PAGE and transferred to nitrocellulose membranes (Bio-Rad Laboratories, Hercules, Calif., USA). Membranes were blocked with 5% non-fat milk in TBS-T (50 mM Tris-HCl, 150 mM NaCl, pH 7.4, 0.1% Tween 20) for 1 hour and then probed overnight with primary antibodies: anti-phospho-AKT (Ser473) (1:500), anti-AKT (1:500) (both from Cell Signaling), Abcam). HRP-conjugated secondary antibodies were used at 1:3,000 dilution (Bio-Rad Laboratories, Hercules, Calif., USA). Protein bands were detected by ECL Plus (Amersham Biosciences) and analyzed with Quantity One® software (Bio-Rad Laboratories, Hercules, Calif., USA).

mHtt = assay: Huntingtin immunoprecipitation and immunoblotting with anti-phospho-Ser antibody; type: cell-based, mouse; conditions: STHdh^111Q/111Q cells, 50 μM GM1 for 5 minutes
[7] = system: Htt phosphorylation at Ser13 and Ser16; assay: Htt phosphorylation in cerebral cortex homogenate of GM1- and CSF-infused mice (immunoblotting, pSer13Ser16 antibody); type: in vivo, mouse; conditions: YAC128 and WT littermates infused for 28 days
Protocol: At the end of the GM1 infusion protocol (28 days after peristaltic pump implantation), mice were euthanized. Brain cortices were dissected and homogenized in 50 mM Tris, 1% NP40, 1 mM EDTA, 10 mM NaF, 1 mM Na2VO4 and 1:100 protease inhibitor cocktail (SIGMA-Aldrich). […] Alexa680-conjugated secondary antibody were used at 1:1,000 dilution in Odyssey buffer. Imaging and analysis were performed using and Odyssey Infrared System (LiCor).
Subsequent to the experimental protocol on animals described above, the mouse brains were dissected and homogenized to examine Htt phosphorylation at Ser13 and Ser16.
In FIG. 20, YAC128 mice and WT littermates infused with CSF (vehicle) or GM1 for 28 days were sacrificed and the amount of phospho-Htt in the same amount of cerebral cortex homogenate was detected by immunoblotting with a pSer13Ser16 specific antibody.

[8] = cited from earlier work
YAC128 mice = assay: Motor behavior (rotarod and horizontal ladder task) during chronic intraventricular GM1 infusion in YAC128 mice
Protocol: (§1) The pump infused a solution of 5.6 mg GM1/ml in artificial cerebrospinal fluid (CSF) (or CSF only in control groups) into the brain ventricle at constant rate (0.25 μl/h, corresponding to 1.4 μg GM1/h or 33.6 μg GM1/day) for 28 days. […] Mice were let recovery for a week, after which motor behavior tests were performed on weekly bases.
(§2) Motor behavior was evaluated with two sensitive tests that are considered the gold-standard for analysis of HD motor deficit: rotarod and horizontal ladder test (Ferrante, R. J. (2009)) To avoid that stress and anxiety would affect motor performance, mice were acclimatized for two days to training room, instruments and tasks to perform, before measuring the actual performance in each specific task. […] Latency to fall off the rotarod in each of these sessions was measured, averaged and compared across groups. For the horizontal ladder walking test, a task that assesses loss and recovery of sensori-motor functions 16, mice were recorded with a videocamera as they walked spontaneously across the ladder. […]
(§3) The pump infused a solution of 3.6 mg GM1/ml in artificial CSF (or CSF only in control groups) into the brain ventricle at constant rate (0.25 μl/h) for 4 weeks. The amount of GM1 infused was calculated in order to achieve 50 μM final concentration in the mouse CSF. […]

wild-type mice = assay: Motor behavior (rotarod and horizontal ladder task) during chronic intraventricular GM1 infusion in wild-type littermates; conditions: intraventricular infusion for 28 days
Protocol: as §1, §2, §3

COC(=O)[C@@]1(O)C[C@H]2O[C@]1(C)n1c3ccccc3c3c4c(c5c6ccccc6n2c5c31)C(=O)NC4 [K252a]
effect of pan-Trk inhibitor on GM1 protective activity (STHdh^111Q/111Q cells [1]; 200 nM K252a, 2 hours pre-incubation before GM1 and apoptotic stress, 7/7 and 111/111 cells, FIG. 10): GM1 protective activity was still fully preserved

CCCCCCCCCCCCCCCC(=O)NC(CN1CCOCC1)C(O)c1ccccc1 (stereo not shown) [PPMP, 1-phenyl-2-palmitoylamino-3-morpholino-1-propanol]
cell susceptibility to apoptosis after inhibition of ganglioside synthesis (STHdh^7Q/7Q cells [2]; 10 μM PPMP for 3 days, then 12 hours serum-free medium at 39° C., FIG. 6B): increased STHdh^7Q/7Q cell susceptibility to apoptosis to the levels observed in STHdh^111Q/111Q cells
plasma membrane GM1 levels after inhibition of ganglioside synthesis (STHdh^7Q/7Q cells [3]; 10 μM PPMP for 3 days, wild-type cells, FIG. 6A): reduce GM1 levels to the amount observed in STHdh^111Q/111Q cells
Htt phosphorylation at Ser13 and S16 after inhibition of ganglioside synthesis [4]: decreases levels of phosphorylation at the same amino acid residues

LIGA-20
potency relative to GM1 [5]: at least an order of magnitude more potent than GM1
protection from apoptosis (annexin V binding, caspase 3 activation) (STHdh^111Q/111Q cells [1]): not effective in protecting striatal cells
protection from apoptosis (annexin V binding, caspase 3 activation) (STHdh^111Q/111Q cells [1]; listed as Liga20): not protective in a genetic cell model of HD

ganglioside GM1
protection from apoptosis (annexin V binding, active caspase-3) (STHdh^7Q/7Q cells [2]; 50 μM, serum deprivation at 39° C., wild-type cells): protected both wild-type and HD cells from apoptosis
cell survival (STHdh^7Q/7Q cells [2]; treated wild-type cells, 50 μM GM1, apoptotic conditions): cell survival was also further augmented
effect of GM1 on PPMP-induced susceptibility to apoptosis (STHdh^7Q/7Q cells [2]; wild-type cells pre-treated with 10 μM PPMP for 3 days): abolished PPMP effects
plasma membrane GM1 levels after GM1 administration (STHdh^111Q/111Q cells [6]): complete restoration of GM1 levels
GM1 content after GM1 administration (STHdh^7Q/7Q cells [3]; 50 μM GM1, treated wild-type cells, FIG. 5C): further increase of GM1 content above their normal levels
phospho-AKT/AKT ratio (AKT; STHdh^7Q/7Q cells): increased the phospho-AKT/AKT ratio
levels of active (phospho) AKT compared with wild-type (AKT; STHdh^111Q/111Q cells after GM1 administration): restored to normal
phospho-AKT/AKT ratio (AKT; STHdh^111Q/111Q cells): increased the phospho-AKT/AKT ratio
mHtt phosphorylation (phospho-Ser/mHtt) (mHtt): increased mHtt phosphorylation
phosphorylation of Htt at Ser13 and Ser16 in cerebral cortex [7]: increase in the phosphorylation of Htt at these residues
frequency of possible adverse effects such as Guillain-Barre' syndrome (GBS) ([8]; Alter, 1998): rare
safety in clinical trials ([8]; patients with stroke, Parkinson's disease, spinal cord injury): relatively safe to use
motor behavior compared with wild-type mice (YAC128 mice; after 13 days of GM1 infusion): indistinguishable from wild-type mice
motor behavior (rotarod, horizontal ladder task) versus CSF-infused HD mice (YAC128 mice; intraventricular infusion 0.25 μl/h for 28 days, 3 mice per group): performed significantly better than HD control mice infused with CSF
susceptibility of HD cells to apoptosis compared with wild-type cells (STHdh^111Q/111Q cells [1]; 50 μM, serum deprivation at 39° C.): restored normal susceptibility to apoptosis in HD cells
protection from apoptosis (annexin V binding, active caspase-3) (STHdh^111Q/111Q cells [1]; 50 μM, serum deprivation at 39° C., HD cells): protected both wild-type and HD cells from apoptosis
dose-dependency of GM1 anti-apoptotic action (STHdh^111Q/111Q cells [1]; knock-in striatal cells (7/7 and 111/111), 6 hours in serum-free medium at 39° C., FIG. 9): dose-dependent
behavioral differences GM1 versus CSF infusion (wild-type mice): No behavioral differences were noted
